From patent publication US7029879B1, “Iodine uptake restoration in thyroid cancer” (University of Kentucky Research Foundation, priority 1999, dated 2006)

Tests used:
[1] = tested on: dedifferentiated follicular and papillary thyroid cancers; conditions: of 14 patients not concentrating any radioiodine in metastatic tumors at baseline; cited from earlier work
[2] = tested on: UCLA RO 82 W-1 (WRO82) cells; conditions: UCLA RO 82 W-1 (WRO82) follicular carcinoma cell line; cited from earlier work
thyroglobulin (TG) mRNA = experiment: Thyroglobulin (TG) mRNA RT-PCR after polyamine synthesis inhibition; format: cell-based, human; conditions: NPA'87 and KAK-1; DFMO 1 or 3 mM, AdoDATO 10 or 30 μM, 6 days; higher doses greater effect
Source text: (§1) hNIS transcriptional failure in thyroid carcinoma could be consequent to methylation of DNA in critical regulatory regions and could be reversed by inhibition of DNA-methyltransferase. Restoration of hNIS gene expression and activity from direct DNA-methyltransferase inhibition by 5-azacytidine has been shown. […] Since dcSAM is consumed by synthesis of polyamines (putrescine, spermidine, spermine) and its synthetic enzyme (adenosylmethionine decarboxylase) is stimulated by polyamine depletion, blockade of polyamine synthesis precipitously increases dcSAM levels. This should block DNA-methyltransferase activity and restore lost hNIS expression in dedifferentiated thyroid carcinomas. To assess this, human thyroid cell lines (NPA'87, papillary carcinoma, & KAK-1, follicular adenoma) without basal expression of hNIS or thyroglobulin (TG) mRNAs, were grown as monolayers in phenol red-free RPMI 1640 with 10% fetal bovine serum. […] Parallel cultures were assessed for Na[^125I] uptake (RAIU) in serum-free buffer, subtracting ^125I counts in buffer with choline (100 mM) to correct for non-specific counts and results normalized for cell density in each condition using thiazolyl blue (MTT) assays. […]

[3] = tested on: thyroid peroxidase (TPO) mRNA; experiment: Thyroid peroxidase (TPO) mRNA RT-PCR after polyamine synthesis inhibition; format: cell-based, human; conditions: NPA'87 and KAK-1; minimal basal expression; every dosage
Source text: as §1

KAK-1 cells = experiment: Na[125I] uptake (RAIU) after polyamine synthesis inhibition, KAK-1; format: cell-based, human; conditions: 30 μM AdoDATO
Source text: as §1

hNIS mRNA = hNIS mRNA RT-PCR after polyamine synthesis inhibition; format: cell-based, human; conditions: NPA'87 and KAK-1; DFMO 1 or 3 mM, AdoDATO 10 or 30 μM, 6 days; higher doses greater effect
Source text: as §1

NPA'87 cells = experiment: Na[125I] uptake (RAIU) after polyamine synthesis inhibition, NPA'87; format: cell-based, human; conditions: DFMO at 3 mM
Source text: as §1

[4] = tested on: human thyroid cancer cell lines; conditions: several human thyroid cancer cell lines in vitro; cited from earlier work

| Molecule | TG mRNA expression (thyroglobulin (TG) mRNA) | TPO expression [3] | hNIS mRNA expression (hNIS mRNA) | also measured |
| --- | --- | --- | --- | --- |
| CC1=C(/C=C/C(C)=C/C=C/C(C)=C\C(=O)O)C(C)(C)CCC1 [13cis-retinoic acid] | – | – | – | additional patients gaining "weak" uptake [1]: three; patients re-establishing distinct iodide uptake after treatment [1]: one; iodide uptake activity [2]: nominal increase |
| NCCCCC[S+](CCN)CC1OC(n2cnc3c(N)ncnc32)C(O)C1O (stereo not drawn) [AdoDATO, S-adenosyl-1,8-diamino-3-thio-octane] | restored | enhancing expression at every dosage | restored | increase in RAIU (KAK-1 cells): ~5 fold |
| NCCCC(N)(C(=O)O)C(F)F (stereo not drawn) [DFMO, difluoromethylomithine] | restored | enhancing expression at every dosage | restored | increase in RAIU (NPA'87 cells): > 6 fold |
| gamma interferon: cytokine suggested in the literature to minimally enhance iodide uptake in thyroid cancer cell lines | – | – | – | enhancement of iodide uptake [4]: minimal enhancement |
